Values belong to the molecule of their own block, whether it stands above or below them.
Tests used:
[1] = tested on: Japanese White male rabbits; experiment: Intraocular pressure reduction and conjunctival hyperemia (Example 5, Table 1 (1)-(6)); format: in vivo; design: key: −: scarcely observed; ±: extremely weak hyperemia; +: slight hyperemia; ++: pronounced hyperemia; +++: severe hyperemia; +++*: *: Lid closure and lacrimation were observed; conditions: extent of conjunctival hyperemia, topical
Method: (§1) For the purpose of tonometry, Japanese White male rabbits (2.5-3.0 Kg) were fixed on braces. After topical anesthetization with 0.4% oxybuprocaine hydrochloride, intraocular pressure was measured using a pheumatic applanation tonometer (manufactured by Japan Alcon). After the topical application of 50 μl of the suspensions of the test drugs in a physiological saline to one eye, the intraocular pressure was measured and the intraocular pressure reduction (%) caused by each test drug was calculated. At the same time, the extent of conjunctival hyperemia was observed.

[2] = tested on: Japanese White male rabbits; experiment: as above; format: in vivo; conditions: intraocular pressure reduction (%), topical
Method: as §1

[3] = prior art statement; cited from earlier work
[4] = tested on: Japanese White male rabbits; experiment: Change in intraocular pressure with time after application (Example 4, FIG. 1); format: in vivo; conditions: topical 25 μg/eye, every 1 hr until 6 hr, 6 rabbits per group
Method: FIG. 1 is a graph showing change in intraocular pressure with time after application of prostaglandins E2 to rabbits, wherein applied drugs were as follows:
For the purpose of tonometry, Japanese White male rabbits (2.5-3.0 Kg) were fixed on braces, and after topical anesthetization with 0.4% oxybuprocaine hydrochloride, intraocular pressure was measured using a pheumatic applanation tonometer (manufactured by Japan Alcon K.K.).
The test drugs were suspended in a physiological saline. A 50 μl aliquot […] of the suspension (25 μg/eye of the test drug) was topically applied to one eye. The contralateral control eye received physiological saline. Intraocular pressure was measured at every 1 hr, until 6 hr, after topical application. In this experiment, 6 rabbits per group were used, and the mean values of intraocular pressure of the treated eye at each time were calculated.

[5] = tested on: Japanese White male rabbits; experiment: Intraocular pressure reduction and conjunctival hyperemia (Example 5, Table 1 (1)-(6)); format: in vivo; design: key: −: none; +−: barely visible hyperemia; +: slight hyperemia; ++: moderate hyperemia; +++: severe hyperemia; +++*: *: lid-closing and severe hyperemia are observed; conditions: extent of conjunctival hyperemia; topical, dose 100 μg/eye
Method: as §1

Hyperemia ([1]; dose 250 μg/eye): ±
SMILES: CCCCCCCCC(=O)CCC1C(O)CC(O)C1C/C=C\CCCC(=O)OC (stereo not drawn) [Test Drug (90), 13,14-dihydro-15-keto-20-n-propyl-PGF2^α methyl ester]
Percent change of IOP ([2]; dose 250 μg/eye): 25%

SMILES: CCCCCC(=O)/C=C/[C@@H]1[C@@H](C/C=C\CCCC(=O)O)[C@@H](O)C[C@H]1O [15-keto-PGF2]
Ocular hypotensive activity (in words) [3]: a very little

SMILES: CCCCC[C@H](O)/C=C/[C@H]1[C@H](O)CC(=O)[C@@H]1C/C=C\CCCC(=O)O [Test Drug (73), PGE2, reference compound]
Intraocular pressure response (in words) [4]: transient ocular hypertensive response

SMILES: CCCCC[C@H](O)/C=C/[C@@H]1[C@@H](C/C=C\CCCC(=O)O)[C@@H](O)C[C@H]1O [PGF2]
Ocular hypotensive activity (in words) [3]: high ocular hypotensive activity

Hyperemia ([1]; dose 250 μg/eye): ±
SMILES: CCCCCC(=O)CCC1C(=O)CC(O)C1C/C=C\CCCC(=O)OCC (stereo not shown) [Test Drug (30), 13,14-dihydro-15-keto-PGD2 ethyl ester]
Percent change of IOP ([2]; dose 250 μg/eye): 20%

Hyperemia [5]: +
SMILES: CCCCCC(=O)CCC1C=CC(=O)C1C/C=C\CCCC(=O)OCC (stereo not shown) [Test Drug (3), 13,14-dihydro-15-keto-PGA2 ethyl ester]
Percent change of IOP ([2]; dose 100 μg/eye): 24%

Hyperemia ([1]; dose 50 μg/eye): −
SMILES: CCCCCCCC(=O)CCC1C=CC(=O)C1C/C=C\CCCC(=O)OC(C)C (stereo not shown) [Test Drug (8), 13,14-dihydro-15-keto-20-ethyl-PGA2 isopropyl ester]
Percent change of IOP ([2]; dose 50 μg/eye): 27%

SMILES: CCCCCC(=O)CC[C@H]1[C@H](O)CC(=O)[C@@H]1C/C=C\CCCC(=O)O [Test Drug (56), 13,14-dihydro-15-keto-PGE2]
Intraocular pressure response (in words) [4]: ocular hypotensive potency without transient ocular hypertensive response

Hyperemia ([1]; dose 250 μg/eye): ±
SMILES: CCCCCC(=O)CCC1C(=O)CC(O)C1CC#CCCCC(=O)OC (stereo not drawn) [Test Drug (34), 13,14-dihydro-15-keto-5,6-dehydro-9β-PGD2 methyl ester]
Percent change of IOP ([2]; dose 250 μg/eye): 23%

Hyperemia [5]: +
SMILES: CCCCC(F)C(=O)CCC1C(=O)CC(O)C1C/C=C\CCCC(=O)OC (stereo not shown) [Test Drug (35), 13,14-dihydro-15-keto-16R,S-fluoro-PGD2 methyl ester]
Percent change of IOP ([2]; dose 100 μg/eye): 13%

Reference: patent US6420422B1, “Ocular hypotensive agents” (Sucampo Pharmaceuticals, Inc., priority 1987, dated 2002)
